Assay results reported in patent US20240140931A1, “TRICYCLIC COMPOUNDS AND USES THEREOF” (HUTCHMED LIMITED, priority 2021, published 2024).

Legend:
[1] = target: Human full-length SHP2 recombinant protein (Homo sapiens (Human), UniProt Q06124); experiment: Assay of full-length SHP2 phosphatase activity; assay type: biochemical; conditions: DiFMUP substrate, with activating peptide
Method: Example 2 Assay of Full-Length SHP2 Phosphatase Activity
1. Reagents and Materials • Human full-length SHP2 recombinant protein: BPS Bioscience, Cat #79018; • SHP2 substrate DiFMUP (1 mM): BPS Bioscience, Cat #79769; • SHP2 activating peptide (100 μM): BPS Bioscience, Cat #79319-2; • DTT: Merck, Cat #DTT-RO; • 384-well plate: Corning, Cat #3575; • 96-well plate: Thermo Fisher Scientific, Cat #249952; • Instrument: EnVision 2104, PerkinElmer.
2. Preparation of Reaction Solutions
The test compound was dissolved in DMSO and diluted with DMSO to 100.0 μM, and the compound was further 3-fold diluted with DMSO to: 100.00, 33.33, 11.11, 3.70, 1.23, 0.41, 0.14 and 0.05 μM.
3. Experimental Steps • To the corresponding wells of the 384-well plate was added 2.5 μL of 4× test compound or 2.5 μL of 4% DMSO solution, and centrifugation was carried out at 1000 rpm for 30 seconds. • To the test compound well and positive control well was added 2.5 μL of 4× mixed solution of SHP2 enzyme/activating peptide while to the negative control well was added 2.5 μL of 1× enzymatic reaction buffer; centrifugation was carried out at 1000 rpm for 30 seconds and incubation was carried out at room temperature for 30 minutes. • To each well was added 5 μL of 2×DiFMUP substrate to initiate the enzymatic reaction, then the plate was transiently oscillated and centrifuged at 1000 rpm for 30 seconds, and the 384-well plate was sealed with a sealing membrane and incubated at 25° C. on a low-speed shaker (100 rpm) in the dark for 60 minutes. • The fluorescence value (relative fluorescence units, RFU) of each well was detected on EnVision2104 (excitation: 355 nm, emission: 460 nm).
wherein • the RFU of compound well refers to the fluorescence reading at 460 nm of the well containing the test compounds; • the RFU of negative control well refers to the fluorescence reading at 460 nm of the background well containing 1% DMSO and the enzymatic reaction buffer; • the RFU of positive control well refers to the fluorescence reading at 460 nm of the well containing 1% DMSO and the mixed solution of SHP2 enzyme/activating peptide.
(§1) IC50 values were calculated following formula 205: y=A+((B−A)/(1+((C/X)^D))), by using the XL-Fit 5.0 software.

[2] = system: pERK1/2 (Thr202/Tyr204) in Miapaca2 cells; experiment: Assay of intracellular pERK1/2 (Thr202/Tyr204) phosphorylation; assay type: cell-based
Method: Example 3 Assay of Intracellular pERK1/2 (Thr202/Tyr204) Phosphorylation
1. Reagents and Materials • pERK1/2 (Thr202/Tyr204) HTRF kit: Cisbio, Cat #64ERKPEH; • Cell line: Miapaca2, ATCC, CRL-1420; • OptiPlate™-384-well plate: PerkinElmer, Cat #6007299; • 96-well plate: Corning, Cat #353072; • Instrument: EnVision2104, PerkinElmer.
2. Preparation of Reaction Solutions • The test compound was dissolved in DMSO and diluted with DMSO to 600.0 μM, and the compound was further 3-fold diluted with DMSO to: 600.0, 200.0, 66.7, 22.2, 7.4, 2.5, 0.82 and 0.27 μM. Then 10 μL of the compound at different dilution concentrations was added to 190 μL of a DMEM medium to prepare a 10× test compound, wherein DMSO was at the concentration of 5% (DMSO was at the final concentration of 0.5%). • 1× cell lysis buffer: 4× cell lysis stock solution (provided by the kit) was diluted 4-fold with deionized water, and then 1% 100× blocking stock solution (provided by the kit) was added thereto. • pERK1/2 detection solution (prepared just before use): the pERK1/2 d2 antibody (provided by the kit) and pERK1/2 Cryptate antibody (provided by the kit) were diluted with the detection solution (provided by the kit) at a ratio of 1:1:38.
3. Experimental Steps • Miapaca2 cells were inoculated into a 96-well plate at a density of 10000 cells/well at 90 μL/well and cultured in a cell incubator at 5% CO2 and 37° C. overnight. • 10 μL of 10× test compound was added to the 90 μL cell culture 96-well plate; to the cell positive control well was added 10 μL of 5% DMSO culture solution; and the plate was cultured in a cell incubator at 5% CO2 and 37° C. for 2 hours. • The medium in the 96-well plate was removed; 50 μL of 1× cell lysis buffer was added to each well; the plate was placed in a microplate shaker; and lysis under shaking was carried out at 900 rpm at room temperature for 1 hour. • 16 μL of the lysis buffer in the 96-well plate was taken and transferred to a 384-well plate, and centrifugation was carried out at 1000 rpm for 30 seconds; then 4 μL of pERK1/2 detection solution was added to each well and centrifugation was carried out at 1000 rpm for 30 seconds; and the 384-well plate was sealed with a sealing membrane and incubated at 25° C. on a low-speed shaker (100 rpm) in the dark for 2 hours. • The fluorescence value (relative fluorescence units, RFU) of each well was detected on EnVision2104 (emission 1: 665 nm, emission 2: 615 nm).
wherein • the fluorescence ratio of compound well refers to the fluorescence ratio of the well containing the test compounds; • the fluorescence ratio of negative control well refers to the fluorescence ratio of the background containing the cell lysis buffer and no Miapaca2 cells; • the fluorescence ratio of positive control well refers to the fluorescence ratio of the well containing 0.5% DMSO and Miapaca2 cells.
as §1

[3] = Homo sapiens, MIA PaCa-2, 2 h, pERK1/2 (Thr202/Tyr204) HTRF
[4] = Homo sapiens, MIA PaCa-2, pERK1/2 (Thr202/Tyr204) HTRF, 2 hours
[5] = pERK1/2 (Thr202/Tyr204) HTRF, 2 hours

| IC50 [1] [nM] | IC50 [2, 3] [nM] | IC50 [2, 5] [nM] | SMILES | IC50 [2, 4] [nM] |
| --- | --- | --- | --- | --- |
| 97 | 1150 | – | C#Cc1ccc2c(c1)OC1(CCN(c3cc(=O)n(-c4cccc(Cl)c4Cl)c(C)n3)CC1)[C@@H]2N (atropisomer, axis not shown) [Compound 11] | – |
| 12 | 52 | – | C#Cc1ccc2c(c1)CC1(CCN(c3cc(=O)n(-c4cccc(Cl)c4Cl)c(C)n3)CC1)[C@@H]2N (atropisomer, axis not shown) [Compound 20] | – |
| 412 | – | – | C#Cc1ccc2c(c1)CC1(CCN(c3cc(=O)n(-c4cccc(Cl)c4Cl)c(C)n3)CC1)[C@@H]2N (atropisomer, axis not shown) [Compound 24] | – |
| > 1000 | – | – | C#Cc1ccc2c(c1)OC1(CCN(c3cc(=O)n(-c4cccc(Cl)c4Cl)c(C)n3)CC1)[C@@H]2N (atropisomer, axis not shown) [Compound 28] | – |
| 63 | – | 231 | C#Cc1ccc2c(c1)[C@@H](N)C1(CCN(c3nc(C)n(-c4cccc(Cl)c4Cl)c(=O)c3C)CC1)C2 (atropisomer, axis not shown) [Compound 48] | – |
| 3 | – | 18 | C#Cc1ccc2c(c1)[C@@H](N)C1(CCN(c3nc(C)n(-c4cccc(Cl)c4Cl)c(=O)c3C)CC1)C2 (atropisomer, axis not shown) [Compound 49] | – |
| 15 | – | 318 | Cc1c(N2CCC3(CC2)Cc2ccc(C#CCN(C)C)cc2[C@H]3N)nc(C)n(-c2cccc(Cl)c2Cl)c1=O (atropisomer, axis not shown) [Compound 50] | – |
| 1 | – | 21 | Cc1c(N2CCC3(CC2)Cc2ccc(C#CCN(C)C)cc2[C@H]3N)nc(C)n(-c2cccc(Cl)c2Cl)c1=O (atropisomer, axis not shown) [Compound 51] | – |
| 2 | – | 60 | C#Cc1ccc2c(c1)[C@@H](N)C1(CCN(c3cc(=O)n(-c4cccc(Cl)c4F)c(C)n3)CC1)C2 (atropisomer, axis not shown) [Compound 65] | – |
| 24 | – | 271 | C#Cc1ccc2c(c1)[C@@H](N)C1(CCN(c3cc(=O)n(-c4cccc(Cl)c4F)c(C)n3)CC1)C2 (atropisomer, axis not shown) [Compound 66] | – |
| 0.8 | – | 26 | C#Cc1ccc2c(c1)[C@@H](N)C1(CCN(c3cc(=O)n(-c4ccc(F)c(OC)c4F)c(C)n3)CC1)C2 (atropisomer, axis not shown) [Compound 88] | – |
| 15 | – | 153 | C#Cc1ccc2c(c1)[C@@H](N)C1(CCN(c3cc(=O)n(-c4ccc(F)c(OC)c4F)c(C)n3)CC1)C2 (atropisomer, axis not shown) [Compound 89] | – |
| 2 | – | 12 | C#Cc1ccc2c(c1)[C@@H](N)C1(CCN(c3nc(C)n(-c4ccc(F)cc4Cl)c(=O)c3C)CC1)C2 (atropisomer, axis not shown) [Compound 102] | – |
| 17 | – | 80 | C#Cc1ccc2c(c1)[C@@H](N)C1(CCN(c3nc(C)n(-c4ccc(F)cc4Cl)c(=O)c3C)CC1)C2 (atropisomer, axis not shown) [Compound 103] | – |
| 1 | – | 7 | C#Cc1ccc2c(c1)[C@@H](N)C1(CCN(c3cc(=O)n(-c4ccc(F)c(Cl)c4Cl)c(C)n3)CC1)C2 (atropisomer, axis not shown) [Compound 108] | – |
| 118 | – | 259 | C#Cc1ccc2c(c1)[C@@H](N)C1(CCN(c3cc(=O)n(-c4ccc(F)c(Cl)c4Cl)c(C)n3)CC1)C2 (atropisomer, axis not shown) [Compound 109] | – |
| > 1000 | – | – | C#Cc1ccc2c(c1)OC1(CCN(c3cc(=O)n(-c4ccc(F)c(F)c4)c(C)n3)CC1)[C@@H]2N [Compound 13] | – |
| > 1000 | – | – | C#Cc1ccc2c(c1)OC1(CCN(c3nc(C)n(-c4ccc(F)c(F)c4)c(=O)c3C)CC1)[C@@H]2N [Compound 14] | – |
| > 1000 | – | – | C#Cc1ccc2c(c1)OC1(CCN(c3cc(=O)n(-c4cccc(Cl)c4)c(C)n3)CC1)[C@@H]2N [Compound 18] | – |
| > 1000 | – | – | C#Cc1ccc2c(c1)OC1(CCN(c3cc(=O)n(-c4ccccc4)c(C)n3)CC1)[C@@H]2N [Compound 19] | – |
| 541 | – | – | C#Cc1ccc2c(c1)CC1(CCN(c3cc(=O)n(-c4ccc(F)c(F)c4)c(C)n3)CC1)[C@@H]2N [Compound 21] | – |
| 348 | – | – | C#Cc1ccc2c(c1)CC1(CCN(c3cc(=O)n(-c4ccc(Cl)cc4)c(C)n3)CC1)[C@@H]2N [Compound 22] | – |
| 757 | – | – | C#Cc1ccc2c(c1)CC1(CCN(c3cc(=O)n(-c4ccccc4)c(C)n3)CC1)[C@@H]2N [Compound 23] | – |
| 310 | – | – | C#Cc1ccc2c(c1)[C@@H](N)C1(CCN(c3cc(=O)n(-c4c(Cl)cccc4Cl)c(C)n3)CC1)C2 [Compound 33] | – |
| – | 37 | – | Cc1nc(N2CCC3(CC2)Cc2ccc(C#CCN(C)C)cc2[C@H]3N)cc(=O)n1-c1cccc(Cl)c1Cl [Compound 52] | – |
| – | – | 260 | C#Cc1ccc2c(c1)[C@@H](N)C1(CCN(c3cc(=O)n(-c4cc(OC)ccc4Cl)c(C)n3)CC1)C2 [Compound 58] | – |
| – | – | 56 | C#Cc1ccc2c(c1)[C@@H](N)C1(CCN(c3cc(=O)n(-c4ccc(F)c(F)c4Cl)c(C)n3)CC1)C2 [Compound 77] | – |
| – | – | – | Cc1nc(N2CCC3(CC2)Cc2ccc(SC4COC4)cc2[C@H]3N)cc(=O)n1-c1cccc(Cl)c1Cl [Compound 81, (S)-6-(1-amino-6-(oxetan-3-ylthio)-1,3-dihydrospiro[indene-2,4′-piperidin]-1′-yl)-3-(2,3-dichlorophenyl)-2-methylpyrimidin-4(3H)-one] | 89 |
| > 1000 | – | – | COCC#Cc1ccc2c(c1)[C@@H](N)C1(CCN(c3cc(=O)n(-c4cccc(Cl)c4Cl)c(C(F)(F)F)n3)CC1)C2 [Compound 130] | – |
| – | – | > 1000 | C#Cc1ccc2c(c1)[C@@H](N)C1(CCN(c3cc(=O)n(-c4cccc(C#N)c4Cl)c(C)n3)CC1)C2 [Compound 267] | – |

| SMILES | IC50 [1] [nM] | IC50 [2, 3] [nM] | IC50 [2, 5] [nM] | IC50 [2, 4] [nM] |
| --- | --- | --- | --- | --- |
| C#Cc1ccc2c(c1)[C@@H](N)C1(CCN(c3cc(=O)n(-c4cccc(Cl)c4Cl)c(C)n3)CC1)C2 (atropisomer, axis not shown) [Compound 12, (S)-6-(1-amino-6-ethynyl-1,3-dihydrospiro[indene-2,4′-piperidin]-1′-yl)-3-(2,3-dichlorophenyl)-2-methylpyrimidin-4(3H)-one] | 1 | – | – | 7 |
